From paper PMC6150237, “Study of Absorption Characteristics of the Total Saponins from Radix Ilicis Pubescentis in an In Situ Single-Pass Intestinal Perfusion (SPIP) Rat Model by Using Ultra Performance Liquid Chromatography (UPLC)” (Molecules : A Journal of Synthetic Chemistry and Natural …, 2017)

Key:
[1] = In situ single-pass intestinal perfusion (SPIP), saponins administrated in monomer forms; assay type: in vivo; conditions: male, Sprague-Dawley, rat, other: in situ single-pass intestinal perfusion
Procedure: (§1) MDQ-TS perfusion samples at low, middle, and high concentration levels of 1.25, 2.5, and 5.0 mg·mL^−1 were prepared by separately dissolving MDQ-TS in the minimum amount of DMSO and diluted with K-R buffer solution. The amount of DMSO was 0.5% in the final perfusion solutions. C1, C2, C3, C4, DC1, and DC2 perfusion samples with the concentration equivalent to the amount contained in 2.5 mg·mL^−1 of MDQ-TS were individually prepared in the same way. Verapamil, amantadine and EDTA were directly dissolved in the MDQ-TS perfusate with terminal concentrations of 200 μmol·L^−1, 2.5 mmol·L^−1, and 2.5 mmol·L^−1, accordingly, and used for investigating the mechanisms involved for absorption.
(§2) In situ single-pass intestinal perfusion (SPIP) studies were performed using an experimental design adapted from the literature with some modifications. Briefly, male Sprague-Dawley rats weighing 180–220 g were acclimatized for at least one week before the experiment, and fasted for 18 h with free access to water before the perfusion experiment. Rats were anesthetized with an intraperitoneal injection of urethane (30 mg·kg^−1 body weight), and kept on a homeothermic blanket to maintain normal body temperature. The abdomen was opened with a midline longitudinal incision, and three segments of rat intestine (duodenum, jejunum, and ileum) of approximately 10 cm each were carefully cannulated on two ends with plastic tubing. Initially, the perfusion solution free of drug (37 °C) was pumped by peristaltic pump (BT100-1F, Longer Pump Co., Baoding, China) through the cannulated segments at a flow rate of 1 mL/min for approximately 30 min in order to clean out any residual debris. Secondly, the perfusion solution containing a known concentration of substance (C1, C2, C3, C4, DC1, DC2, and MDQ-TS) was perfused at 37 °C through the intestinal lumen at a constant flow rate of 0.2 mL/min. The first 20 min of period corresponds to steady state, i.e., when the substance is in equilibrium with the intestinal membrane. After steady state, samples were collected from distal portion of duodenum, jejunum and ileum at 10 min intervals (0–10, 10–20, 20–30, 30–40, 40–50, 50–60 min) in pre-weighted vials. Samples were immediately frozen at −20 °C until analysis by validated UPLC. During the experiment, care was taken to avoid disturbance of the circulatory system and the exposed segment was covered with a piece of sterilized gauze to keep it warm and moist by frequent application of warm (37 °C) saline. The intestinum tenue maintained its viability and intact state without disrupting the blood supply throughout the experimental period. Finally, animals were sacrificed after depth anesthesia by intraperitoneal injection of urethane, according to protocols for euthanasia in experimental animals. After death, the intestinal segment was removed for measurements of length and inside diameter.
(§3) The net water flux in the in situ perfusion studies (water absorption and efflux in the intestinal segment) was determined by gravimetric method. The effective absorption rate constant (Ka) and effective apparent permeability (Papp) of compounds in the intestinal segments were calculated according to the following mathematical expression:(1) Ka=(1−CoutQout/CinQin)Q/V (2) Papp=−Qln(CoutQout/CinQin)/2πrl where Cin and Cout are the concentration of test drug in the effluent perfusate through the inlet and outlet tube (μg·mL^−1), respectively. Qin and Qout represent the inlet and outlet volume of effluent perfusate (mL), respectively. Q is the volume flow rate of perfusion (mL·h^−1). V is the volume of the intestinal segment concerned (mL). 2πrl is the area of the mass transfer surface of intestinal segment concerned (cm^2).

[2] = In situ single-pass intestinal perfusion (SPIP), saponins administrated in MDQ-TS form; assay type: in vivo, rat; conditions: male, Sprague-Dawley, rat, other: in situ single-pass intestinal perfusion
Procedure: as §1, §2, §3

[3] = test system: rat small intestine (duodenum, jejunum, ileum); assay: as above; assay type: in vivo; conditions: n = 5
Procedure: as §1, §2, §3

rat duodenum = assay: SPIP of MDQ-TS with or without amantadine (endocytosis inhibitor); assay type: in vivo; conditions: MDQ-TS 2.5 mg/mL, amantadine 2.5 mmol·L^−1
Procedure: as §1, §2
as §3, with “(cm^2). […]” for “(cm^2).”

[4] = Apparent oil-water partition coefficient, shake-flask method; assay type: physicochemical; conditions: n-octanol / phosphate buffer pH 1.2-9.0, 37 °C; Kow = log Co/(Ct−Co)
Procedure: The equilibrium partitioning of C1, C2, C3, C4, DC1, and DC2 between organic lipid and water (Kow) was determined in our study by the traditional shake-flask method (SFM). Briefly, 0.5 mL of each saponin standard working solution (100 µg·mL^−1 in water-saturated n-octanol) was accurately measured into 5 mL centrifuge tubes, and spiked with 0.5 mL of different phosphate buffer solutions (pH: 1.2, 2.0, 3.6, 5.8, 6.8, 7.4, 7.8, and 9.0), respectively. After vortex-mixing for 45 min, the tubes were kept in a temperature-stable horizontal shaking bath (37 °C) for 24 h, and then centrifuged at 13,000 rpm for 10 min. Two hundred microliters of organic supernatant solution was measured, diluted with 800 µL of methanol, and mixed well. Ten microliters of the final solution was injected into the HPLC system (detailed experimental conditions and method validation results were not shown) for determination of the drug concentration in the n-octanol phase. The Kow values of the six saponins were calculated according to the following mathematical expression:(3) Kow=logCo/Ct−Co where Ct is the total concentration of the drug, and Co is the concentration of the drug in n-octanol phase.

[5] = administered in monomer forms, summary bound
[6] = monomer form, duodenum, concentration equivalent to 2.5 mg·mL^−1 MDQ-TS, n = 5
[7] = MDQ-TS form 1.25 mg·mL^−1, duodenum, n = 5
[8] = MDQ-TS form 1.25 mg·mL^−1, ileum, n = 5
[9] = MDQ-TS form 1.25 mg·mL^−1, jejunum, n = 5
[10] = MDQ-TS form 2.5 mg·mL^−1, duodenum, n = 5
[11] = MDQ-TS form 2.5 mg·mL^−1, ileum, n = 5
[12] = MDQ-TS form 2.5 mg·mL^−1, jejunum, n = 5
[13] = MDQ-TS form 5.0 mg·mL^−1, duodenum, n = 5
[14] = MDQ-TS form 5.0 mg·mL^−1, ileum, n = 5
[15] = MDQ-TS form 5.0 mg·mL^−1, jejunum, n = 5
[16] = administrated in MDQ-TS form, summary bound (except DC2 in 1.25 mg·mL^−1 MDQ-TS group)
[17] = MDQ-TS form 1.25 mg·mL^−1, duodenum
[18] = MDQ-TS form 1.25 mg·mL^−1, ileum
[19] = MDQ-TS form 1.25 mg·mL^−1, jejunum
[20] = MDQ-TS form 2.5 mg·mL^−1, duodenum
[21] = MDQ-TS form 2.5 mg·mL^−1, ileum
[22] = MDQ-TS form 2.5 mg·mL^−1, jejunum
[23] = MDQ-TS form 5.0 mg·mL^−1, duodenum
[24] = MDQ-TS form 5.0 mg·mL^−1, ileum
[25] = MDQ-TS form 5.0 mg·mL^−1, jejunum

CC1CCC2(C(=O)OC3OC(CO)C(O)C(O)C3O)CCC3(C)C(=CCC4C5(C)CCC(O)C(C)(C(=O)O)C5CCC43C)C2C1(C)O (centres unmarked) [C2, ilexsaponin A1]
Papp [1, 5]: > 20 ×10⁻⁶ cm/s
Papp [1, 6]: 40 ×10⁻⁶ cm/s
Papp ([1]; monomer form, ileum, n = 5): 41.7 ×10⁻⁶ cm/s
Papp ([1]; monomer form, jejunum, n = 5): 41.7 ×10⁻⁶ cm/s
Papp [2, 7]: 28.3 ×10⁻⁶ cm/s
Papp [2, 8]: 23.3 ×10⁻⁶ cm/s
Papp [2, 9]: 28.3 ×10⁻⁶ cm/s
Papp [2, 10]: 45 ×10⁻⁶ cm/s
Papp [2, 11]: 46.7 ×10⁻⁶ cm/s
Papp [2, 12]: 43.3 ×10⁻⁶ cm/s
Papp [2, 13]: 36.7 ×10⁻⁶ cm/s
Papp [2, 14]: 23.3 ×10⁻⁶ cm/s
Papp [2, 15]: 33.3 ×10⁻⁶ cm/s
Papp [2, 16]: > 20 ×10⁻⁶ cm/s
Ka [3, 17]: 1.10 ± 0.40 ×10^−2 min^−1
Ka [3, 18]: 1.61 ± 0.37 ×10^−2 min^−1
Ka [3, 19]: 0.74 ± 0.25 ×10^−2 min^−1
Ka [3, 20]: 0.85 ± 0.20 ×10^−2 min^−1
Ka [3, 21]: 1.89 ± 0.35 ×10^−2 min^−1
Ka [3, 22]: 0.68 ± 0.18 ×10^−2 min^−1
Ka [3, 23]: 1.13 ± 0.62 ×10^−2 min^−1
Ka [3, 24]: 0.85 ± 0.27 ×10^−2 min^−1
Ka [3, 25]: 1.21 ± 0.51 ×10^−2 min^−1
decrease of absorption compared with non-Amantadine added group (rat duodenum): 71%
apparent oil-water partition coefficient (Kow) [4]: −1 to 2

C[C@@H]1CC[C@]2(C(=O)O)CC[C@]3(C)C(=CC[C@@H]4[C@@]5(C)CC[C@H](O)[C@@](C)(C(=O)O)[C@@H]5CC[C@]43C)[C@@H]2[C@]1(C)O [C1, ilexgenin A]
Papp [1, 5]: > 20 ×10⁻⁶ cm/s
Papp [1, 6]: 55 ×10⁻⁶ cm/s
Papp ([1]; monomer form, ileum, n = 5): 50 ×10⁻⁶ cm/s
Papp ([1]; monomer form, jejunum, n = 5): 58.3 ×10⁻⁶ cm/s
Papp [2, 7]: 36.7 ×10⁻⁶ cm/s
Papp [2, 8]: 25 ×10⁻⁶ cm/s
Papp [2, 9]: 28.3 ×10⁻⁶ cm/s
Papp [2, 10]: 50 ×10⁻⁶ cm/s
Papp [2, 11]: 68.3 ×10⁻⁶ cm/s
Papp [2, 12]: 55 ×10⁻⁶ cm/s
Papp [2, 13]: 56.7 ×10⁻⁶ cm/s
Papp [2, 14]: 41.7 ×10⁻⁶ cm/s
Papp [2, 15]: 61.7 ×10⁻⁶ cm/s
Papp [2, 16]: > 20 ×10⁻⁶ cm/s
Ka [3, 17]: 1.86 ± 0.73 ×10^−2 min^−1
Ka [3, 18]: 0.89 ± 0.08 ×10^−2 min^−1
Ka [3, 19]: 0.95 ± 0.28 ×10^−2 min^−1
Ka [3, 20]: 1.70 ± 0.31 ×10^−2 min^−1
Ka [3, 21]: 2.90 ± 0.37 ×10^−2 min^−1
Ka [3, 22]: 2.23 ± 0.39 ×10^−2 min^−1
Ka [3, 23]: 1.68 ± 0.74 ×10^−2 min^−1
Ka [3, 24]: 1.48 ± 0.76 ×10^−2 min^−1
Ka [3, 25]: 2.30 ± 1.24 ×10^−2 min^−1
decrease of absorption compared with non-Amantadine added group (rat duodenum): 40%
apparent oil-water partition coefficient (Kow) [4]: −1 to 2
